Experimental data: PubChem BioAssay AID1117324 (Cheminformatics & Chemogenomics Research Group (CCRG), …, 2015)
Calls of active or inactive are those of the source. How the calls were made is not given here. Where a SMILES comes first, the peptide text is derived from it. Bridges are numbered along the chain shown (N, C = ends). [ ]: non-standard residue; d: D form. hArg = N=C(N)NCCCC[C@H](N)C(=O)O; Mpa = O=C(O)CCS

Test system: VEGF-stimulated ADSC/ECFC co-culture, nuclear area imaging
Assay: nuclear area loss in endothelial-stromal co-culture, dose response, cell-based, VEGF stimulation, IC50 (AID 1117324)

| Structure (SMILES) | IC50 |
| --- | --- |
| C[C@@H]1C[C@H]2[C@@H]3CCC4=CC(=O)C=C[C@]4(C)[C@@]3(Cl)[C@@H](O)C[C@]2(C)[C@@]1(OC(=O)c1ccco1)C(=O)CCl | > 10 µM (inactive) |
| NC(=O)[C@@H]1CSSCCC(=O)N[C@@H](CCCCN=C(N)N)C(=O)NCC(=O)N[C@@H](CC(=O)O)C(=O)N[C@@H](Cc2c[nH]c3ccccc23)C(=O)N2CCC[C@H]2C(=O)N1 ([Mpa][hArg]GDWPC-NH2; disulfide 1-7) | > 10 µM (inactive) |
| CNS(=O)(=O)CCc1ccc2[nH]cc(C3CCN(C)CC3)c2c1 | > 10 µM (inactive) |
| CCCSS/C(CCO)=C(\C)N(C=O)Cc1cnc(C)nc1N | > 10 µM (inactive) |
| CCCSc1ccc2nc(NC(=O)OC)[nH]c2c1 | > 10 µM (inactive) |
| O=C(O)c1ccc(-n2nc(-c3ccccc3O)nc2-c2ccccc2O)cc1 | > 10 µM (inactive) |
| CC(COc1ccccc1)NN (centres undefined) | > 10 µM (inactive) |
| COCc1c(C(C)C)nc(C(C)C)c(/C=C/[C@@H](O)C[C@@H](O)CC(=O)O)c1-c1ccc(F)cc1 | 0.259 µM |
| O=C(c1ccc(F)cc1)C1CCN(CCn2c(=O)[nH]c3ccccc3c2=O)CC1 | > 10 µM (inactive) |
| NC(=O)c1cccnc1 | > 10 µM (inactive) |
| CO[C@H]1O[C@@H]2O[C@@]3(C)CC[C@H]4[C@H](C)CC[C@@H]([C@@H]1C)[C@@]24OO3 | > 10 µM (inactive) |
| CN(Cc1cnc2nc(N)nc(N)c2n1)c1ccc(C(=O)N[C@@H](CCC(=O)O)C(=O)O)cc1 | > 10 µM (inactive) |
| CCCCCCCCCCCCCCCCCCOP(=O)([O-])OC1CC[N+](C)(C)CC1 | > 10 µM (inactive) |
| O=C1OC(OC(=O)c2cccnc2Nc2cccc(C(F)(F)F)c2)c2ccccc21 (centres undefined) | > 10 µM (inactive) |
| CO[C@@H]1[C@@H](OC)[C@H](C)[C@@](O)(CC(=O)O)O[C@H]1[C@H](C)[C@H]1O[C@@]2(CC[C@@](C)([C@H]3CC[C@@](C)([C@@H]4O[C@@H]([C@H]5O[C@](C)(O)[C@H](C)C[C@@H]5C)C[C@@H]4OC4C[C@H](OC)[C@@H](OC)[C@H](C)O4)O3)O2)C[C@H](O)[C@H]1C (some centres undefined) | 2.57 µM |
| CCCCCCCCCCCCCCCC(=O)OCC=C(C)C=CC=C(C)C=CC1=C(C)CCCC1(C)C | > 10 µM (inactive) |
| CC[C@]12CCCN3CCc4c(n(c5ccccc45)C(=O)C1)[C@@H]32 | > 10 µM (inactive) |
| C[C@@H](NCCCc1cccc(C(F)(F)F)c1)c1cccc2ccccc12 | > 10 µM (inactive) |
| COc1cc(C=C2CCC/C(=C\c3ccc(O)c(OC)c3)C2=O)ccc1O | 6.98 µM (inactive) |
| Nc1nc(F)nc2c1ncn2[C@@H]1O[C@H](CO)[C@@H](O)[C@@H]1O | > 10 µM (inactive) |
| CCN(CC)C(=O)c1cccnc1 | > 10 µM (inactive) |
| C[C@@H]1C[C@@H]([C@H](O)CC2CC(=O)NC(=O)C2)C(=O)[C@@H](C)C1 | > 10 µM (inactive) |
| O=c1c(-c2ccccc2)c1-c1ccccc1 | 6.75 µM (inactive) |
| CC(CC=O)CCCC(C)(C)O (centres undefined) | > 10 µM (inactive) |
| CN1CCN(c2cc3c(nn2)Oc2ccccc2N3C)CC1 | > 10 µM (inactive) |

| Structure (SMILES) | IC50 |
| --- | --- |
| C=CC(C)(O)CCC=C(C)CCC=C(C)C (centres undefined) | > 10 µM (inactive) |
| CS(=O)(=O)CCNCc1ccc(-c2ccc3ncnc(Nc4ccc(OCc5cccc(F)c5)c(Cl)c4)c3c2)o1 | > 10 µM (inactive) |
| O=C(Nc1ccc([N+](=O)[O-])cc1)Nc1ccc([N+](=O)[O-])cc1 | > 10 µM (inactive) |
| CC[C@@H]([C@H](C)O)n1ncn(-c2ccc(N3CCN(c4ccc(OC[C@@H]5CO[C@@](Cn6cncn6)(c6ccc(F)cc6F)C5)cc4)CC3)cc2)c1=O | > 10 µM (inactive) |
| CCc1cccc(N(C)C(N)=Nc2cccc3ccccc23)c1 | > 10 µM (inactive) |
| Cc1c(C)c2c(c(C)c1O)CC[C@@](C)(CCC[C@H](C)CCC[C@H](C)CCCC(C)C)O2 | > 10 µM (inactive) |
| COc1cc([C@@H]2c3cc4c(cc3[C@H](O)[C@H]3COC(=O)[C@H]23)OCO4)cc(OC)c1OC | > 10 µM (inactive) |
| CC[C@H](C)C(=O)O[C@H]1C[C@@H](C)C=C2C=C[C@H](C)[C@H](CC[C@@H]3C[C@@H](O)CC(=O)O3)[C@H]21 | > 10 µM (inactive) |
| CN1CCN(C2Cc3ccccc3Sc3ccc(Cl)cc32)CC1 (centres undefined) | > 10 µM (inactive) |
| C1CN(P2(N3CC3)=NP(N3CC3)(N3CC3)=NP(N3CC3)(N3CC3)=N2)CCO1 (centres undefined) | > 10 µM (inactive) |
| CCCCCCCCCCCC(=O)[O][Sn]([CH2]CCC)([CH2]CCC)[O]C(=O)CCCCCCCCCCC | > 10 µM (inactive) |
| Cc1ccc([N+](=O)[O-])[c]2c1[O][Hg]2 | 1.09 µM |
| COCC(C)N(C(=O)CCl)c1c(C)csc1C (centres undefined) | > 10 µM (inactive) |
| Cc1ccc(C(=O)Oc2ccc(C(O)CNC(C)(C)C)cc2OC(=O)c2ccc(C)cc2)cc1 (centres undefined) | > 10 µM (inactive) |
| O=C1c2c(O)ccc(O)c2C(=O)c2c(NCCNCCO)ccc(NCCNCCO)c21 | 0.0127 µM |
| CCOC(=O)C=C(C)C=CC[C@@H](C)CCCC(C)C | > 10 µM (inactive) |
| OC[C@@H](O)[C@H](O)[C@H](O)[C@@H](O)CO | > 10 µM (inactive) |
| O=C1C(=O)c2ccccc2C(O)=C1C1CCC(c2ccc(Cl)cc2)CC1 (centres undefined) | > 10 µM (inactive) |
| O=C1CC(c2ccc(Cl)cc2)CC(=O)N1 | > 10 µM (inactive) |
| ClC1=C(Cl)C2(Cl)C(CBr)CC1(Cl)C2(Cl)Cl (centres undefined) | 9.97 µM (inactive) |
| C=CCCCCCCCCC(=O)OC | > 10 µM (inactive) |
| C[C@H]1O[C@@H](O[C@H]2CC[C@@]3(C)[C@H](CC[C@@H]4[C@@H]3C[C@@H](O)[C@]3(C)[C@@H](C5=CC(=O)OC5)CC[C@]43O)C2)C[C@H](O)[C@@H]1O[C@H]1C[C@H](O)[C@H](O[C@H]2C[C@H](O)[C@H](O[C@@H]3O[C@H](CO)[C@@H](O)[C@H](O)[C@H]3O)[C@@H](C)O2)[C@@H](C)O1 | 0.299 µM |
| CC1(C)[C@H](C=C(Cl)Cl)[C@@H]1C(=O)OCc1c(F)c(F)cc(F)c1F | > 10 µM (inactive) |
| CC[N+](CC)(CC)CCOc1ccc(/C=C/c2ccccc2)cc1 | > 10 µM (inactive) |
